# Measured values published in US7169567B1, “Screening assay utilizing the PTH receptor” (The General Hospital Corporation, priority 1998, dated 2007).
# “Also recorded” adds a separate entry of the source. Where no end group is shown, it is not given here.
# Experiments:
# Assay type in all cases: cell-based
# rat secretin receptor = molecular target: T1, rat secretin receptor (Rattus norvegicus, UniProt P23811); experiment: cAMP response in COS-7 cells transfected with the rat secretin receptor; details: PTH(1–14) 100 mM
# T1 construct: expressed in transfected cells; host or cells: COS-7, transient
# Description: FIG. 6. Specificity of the Truncated Ligand and PTH Receptor. COS-7 cells transiently transfected with either rWT-HA (A), rΔNt (B), or the intact rat secretin receptor (C), were treated with the indicated peptides for 60 min at 22° C., and the resulting intracellular cAMP levels were quantified by RIA. […] 1 mM and secretin(1–13), 100 mM. Shown are data (mean±s.e.m.) from one experiment performed in duplicate, and this was repeated twice more with equivalent results.
# (§1) Intracellular cyclic AMP: Transfected COS-7 or HKRK-B7 cells were rinsed with 500 ml of binding buffer, (50 mM Tris-HCl, pH 7.7, 100 mM NaCl, 5 mM KCl, 2 mM CaC12, 5% heat-inactivated horse serum, 0.5% heat-inactivated fetal bovine serum) and 200 ml of IBMX buffer (DMEM containing 2 mM IBMX, 1 mg/ml bovine serum albumin, 35 mM Hepes-NaOH, pH 7.4) and […] of binding buffer or binding buffer containing various amounts of peptide were added. The plates were incubated for 60 minutes at room temperature. The buffer was then withdrawn and the cells were frozen on dry ice, treated with 0.5 ml of 50 mM HCl, and refrozen. After the thawing, the lysate was diluted 30-fold in dH20 and an aliquot was analyzed for cAMP content by determined radioimmunoassay using unlabeled cAMP as a standard.
# In order to test whether PTH(1–14) and rΔNt retained the appropriate recognition specificity for the corresponding parent ligand, cross-reactivity experiments were done using secretin ligands and the cloned rat secretin receptor. […] Cells expressing rΔNt responded to PTH(1–34) and PTH(1–14) but not to secretin(1–27) (1 mM) or secretin(1–13) ([…]) (FIG. 5B). Thus, the recognition specificity of PTH(1–14) and rΔNt appear to replicate that of the intact parent molecules. No evidence for relaxed specificity was detected in these studies (FIG. 6).
# [1] = system: parental LLC-PK1 cells (no PTH receptors, endogenous calcitonin receptors); experiment: cAMP response in untransfected parental LLC-PK1 cells; details: untransfected LLC-PK1 cells expressing calcitonin receptor but no PTH receptors
# Description: (§2) FIG. 2. cAMP-stimulating Activity of PTH Fragments in LLC-PK1 Cells. A) Rat PTH(1–34) analog or amino-terminal rPTH fragments were tested for cAMP-stimulating activity in an LLC-P1-derived cell line (HKRK-B7) stably transfected with the human PTH-1 receptor. Cells were treated with peptide at the indicated doses for 60 min at 22° C. Intracellular cAMP was measured by RIA, as described in Experimental Procedures. Shown are combined data (mean±s.e.m.) from 3 separate experiments, each performed in duplicate. B) HKRK-B7 cells, or untransfected LLC-PK1 were treated with rPTH(1–34) or rPTH(1–14), and intracellular cAMP was measured. Shown are data (mean±s.e.m.) from a single representative experiment performed in duplicate.
# as §1, with “The buffer was then withdrawn and the cells were frozen on dry ice, treated with 0.5 ml of 50 mM HCl, and refrozen.” left out, “standard. […]” for “standard.”
# human PTH-1 receptor = molecular target: T2, human PTH-1 receptor (Homo sapiens, UniProt Q03431); experiment: cAMP-stimulating activity in HKRK-B7 cells (LLC-PK1 stably transfected with human PTH-1 receptor), RIA; parameters: maximum cAMP response: dose or concentration left out as unconfirmed; details: for increase in intracellular cAMP levels relative to the basal cAMP level: 60 min at 22° C.
# T2 construct: expressed in transfected cells; host or cells: HKRK-B7 (LLC-PK1 stably transfected, pCDNA-1-based plasmid)
# T2 sequence (Q03431 27-593): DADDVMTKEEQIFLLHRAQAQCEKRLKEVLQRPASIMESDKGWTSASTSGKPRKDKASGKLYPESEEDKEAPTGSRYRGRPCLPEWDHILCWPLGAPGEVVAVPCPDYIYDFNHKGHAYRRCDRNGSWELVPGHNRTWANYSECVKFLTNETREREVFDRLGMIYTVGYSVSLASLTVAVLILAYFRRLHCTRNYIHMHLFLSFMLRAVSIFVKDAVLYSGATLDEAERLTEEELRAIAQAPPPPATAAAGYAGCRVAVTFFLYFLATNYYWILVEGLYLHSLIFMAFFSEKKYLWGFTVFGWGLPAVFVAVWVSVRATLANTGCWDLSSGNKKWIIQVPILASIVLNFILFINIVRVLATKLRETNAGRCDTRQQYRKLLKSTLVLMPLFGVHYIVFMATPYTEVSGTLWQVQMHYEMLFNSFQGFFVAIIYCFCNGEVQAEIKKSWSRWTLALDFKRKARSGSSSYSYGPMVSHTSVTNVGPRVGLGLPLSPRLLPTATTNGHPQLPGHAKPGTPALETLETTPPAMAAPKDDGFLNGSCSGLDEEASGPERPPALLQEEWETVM
# Description: as §2
# FIG. 3. Alanine-scan of PTH(1–14). HKRK-B7 cells were treated with 100 mM of one of 14 different rPTH(1–14) analogs, each having a different alanine-substitution at the indicated amino acid position. The resulting cAMP levels were determined as described in Experimental Procedures. Shown are the combined data (mean±s.e.m.) from three separate experiments, each performed in duplicate. The mean (mean±s.e.m.) basal cAMP levels observed in the three experiments was 2.1±0.1 pmole/well, and the maximum response to rPTH(1–34) at 0.1 mM was 254±16 pmole/well.
# Cell Culture and DNA Transfection: COS-7 and HKRK-B7 cells were cultured at 37° C. in Dulbecco's modified Eagle's medium (DMEM) supplemented with fetal bovine serum (10%); penicillin G (20 units/ml), streptomycin sulfate (20 μg/ml) and amphotericin B (0.05 μg/ml) in a humidified atmosphere containing 5% CO2. Twenty-four to 16 hours prior to assay, cells in 24-well plates were shifted to a humidified incubator containing 5% CO2 that was set at 33° C. Stock solutions of EGTA/trypsin and antibiotics were from GIBCO; fetal bovine serum was from Hyclone Laboratories (Logan, Utah). Derivation and characterization of the HKRK-B7 cell line by stable transfection of LLC-PK1 cells with a pCDNA-1-based plasmid (In Vitrogen, San Diego, Calif.) encoding the hPTH-1 receptor was described previously (Takasu, H. and Bringhurst, F., Endocrinology, in press (1998)). These cells express PTH-1 receptors at a surface density of about 1×10^6 PTH-binding sites per cell. The HKRK-B7 cells were used for functional assays 24 to 72 hours after the cell monolayer reached confluency.
# as §1
# Amino-terminal peptide fragments based on the rat PTH sequence and ranging in length from PTH(1–9) to PTH(1–15) were synthesized and tested for activity in an LLC-PK1-derived cell line called HKRK-B7 which stably expresses high levels (1×10^6 receptors/cell) of the cloned human PTH-1 receptor (Takasu, H. and Bringhurst, F., Endocrinology, in press (1998)).
# T1 sequence (P23811 26-449): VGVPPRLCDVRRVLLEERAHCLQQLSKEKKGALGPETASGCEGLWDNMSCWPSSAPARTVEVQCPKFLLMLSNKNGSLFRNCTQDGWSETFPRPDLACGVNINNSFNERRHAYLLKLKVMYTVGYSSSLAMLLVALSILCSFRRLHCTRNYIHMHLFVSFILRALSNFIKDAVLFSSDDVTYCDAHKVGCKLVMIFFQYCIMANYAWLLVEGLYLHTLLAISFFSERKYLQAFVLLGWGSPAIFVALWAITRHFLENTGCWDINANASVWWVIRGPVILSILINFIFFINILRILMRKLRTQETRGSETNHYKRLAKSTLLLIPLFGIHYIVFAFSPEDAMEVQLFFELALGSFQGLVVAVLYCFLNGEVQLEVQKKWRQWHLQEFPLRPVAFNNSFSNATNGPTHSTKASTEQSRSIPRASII
Molecule,cAMP response of secretin receptor cells (in words) (rat secretin receptor),cAMP responsiveness of parental LLC-PK1 cells [1],EC50 (human PTH-1 receptor) [nM],increase in intracellular cAMP levels relative to the basal cAMP level (human PTH-1 receptor; HKRK-B7 cells),"maximum cAMP response (human PTH-1 receptor; HKRK-B7 cells, mean±s.e.m. of three experiments, basal 2.1±0.1 pmole/well) [pmole/well]",doses required for cAMP activation compared with the dose required for PTH(1–34) (human PTH-1 receptor; HKRK-B7 cells),potency relative to PTH(1–34) with the intact receptor (human PTH-1 receptor; intact receptor)
"CCCC[C@H](NC(=O)[C@H](CCCNC(=N)N)NC(=O)[C@H](CCC(=O)O)NC(=O)[C@@H](NC(=O)[C@H](CO)NC(=O)[C@H](C)NC(=O)[C@H](CC(C)C)NC(=O)[C@H](Cc1c[nH]cn1)NC(=O)[C@H](CCCCN)NC(=O)CNC(=O)[C@H](CC(C)C)NC(=O)[C@H](CC(N)=O)NC(=O)[C@H](Cc1c[nH]cn1)NC(=O)[C@H](CCCC)NC(=O)[C@H](CC(C)C)NC(=O)[C@H](CCC(N)=O)NC(=O)[C@@H](NC(=O)[C@H](CCC(=O)O)NC(=O)[C@H](CO)NC(=O)[C@@H](NC(=O)[C@H](C)N)C(C)C)[C@@H](C)CC)C(C)C)C(=O)N[C@@H](CCC(N)=O)C(=O)N[C@@H](Cc1c[nH]c2ccccc12)C(=O)N[C@@H](CC(C)C)C(=O)N[C@@H](CCCNC(=N)N)C(=O)N[C@@H](CCCCN)C(=O)N[C@@H](CCCCN)C(=O)N[C@@H](CC(C)C)C(=O)N[C@@H](CCC(N)=O)C(=O)N[C@@H](CC(=O)O)C(=O)N[C@H](C(=O)N[C@@H](Cc1c[nH]cn1)C(=O)N[C@@H](CC(N)=O)C(=O)N[C@@H](Cc1ccc(O)cc1)C(N)=O)C(C)C [PTH(1–34), [Nle^8,21,Tyr^34]rPTH-(1–34)NH2]",did not respond,unresponsive,~2,50 fold,254±16,–,–
"PTH(1–14): Amino-terminal peptide fragment based on the rat PTH sequence, residues 1–14, C-terminally amidated (AVSEIQLMHNLGKH-NH2)",did not respond,did not activate; also recorded: unresponsive,–,about 20 fold,–,five to six orders of magnitude higher,about five orders of magnitude weaker
